According to a melting point compilation (Tetko et al.):

melting point [°C] | Structure (SMILES)
263 to 265 | O=C(O)c1ccc(NC(=O)c2ccccn2)cc1
109 to 111 | COC(=O)c1c(NC(=O)OC(C)(C)C)c[nH]c1C
154 to 156 | O=C(CN1C(=O)CCC1=O)c1ccccc1F
131 to 133 | CN(C1CC1)S(=O)(=O)c1ccc(N)cc1
141 to 143 | O=C(O)CCNC(=O)c1ccc(F)cc1Cl
232 to 234 | O=C(O)CCc1nc2ccccc2n1-c1ccccc1
138 to 140 | CN(c1ccccc1N)S(C)(=O)=O
242 to 244 | Cc1ccc(NC(=O)c2cc(Cl)ccc2Cl)c(C(=O)O)c1
134 to 136 | Nc1nc2ccc(C(F)(F)F)cc2[nH]1
158 to 160 | NNC(=S)NCC(F)(F)F
248 to 250 | O=C(O)CN1CCCNC1=O
131 to 135 | Nc1ccccc1C(=O)Nc1cccc(Cl)c1
53 to 55 | CC(C)(C)c1ccc(OCCCC(=O)O)cc1
176 to 178 | Cc1nn(C)c(N)c1SC#N
43 to 45 | O=C(c1cccnc1)C1CCOCC1
120 to 122 | NC(=S)NCc1ccc(OC(F)(F)F)cc1
139 to 141 | CC(Cl)C(=O)N1CC(=O)Nc2ccccc21 (centres undefined)
128 to 130 | O=CC(C=O)SCc1ccccc1
208 to 210 | COc1ccc(C2C(C(N)=O)CC(=O)N2C)cc1 (centres undefined)
124 to 126 | Cc1cc(N)c2cccnc2c1C
175 to 177 | COc1ccc(-n2ccnc2S)cc1
249 to 251 | O=C(O)c1cncc2ccccc12
65 to 67 | CC(C)Oc1ccc2ccccc2c1C=O
55 to 57 | COc1ccc(COCc2cccc(N)c2)cc1

melting point [°C] | Structure (SMILES)
132 to 134 | Cn1cc(-c2cccc(N)n2)cn1
238 to 240 | CCOc1ccc(-c2nnc(N)o2)cc1
89 to 91 | CCOC(=O)c1oc2ccc(Br)cc2c1C
168 to 170 | Nc1ccn(CC(=O)N2CCOCC2)n1
78 to 80 | NC1CCN(C(=O)C2CCCCC2)CC1
119 to 121 | Cc1nn2c(CO)c(C(C)C)nc2s1
184 to 186 | CON(C)S(=O)(=O)c1ccc(Cl)c(C(=O)O)c1
269 to 271 | COc1ccc2[nH]c3c(c2c1)C(=O)CCC3
172 to 174 | Cc1nc(C(=O)O)c(C)s1
303 to 305 | Nc1c(C(=O)O)cnc2ccccc12
90 to 92 | Nc1cc(CSCCO)ccn1
177 to 179 | O=C(O)c1ccccc1CSc1nnc[nH]1
216 to 218 | COc1ccc(C(=O)O)cc1S(=O)(=O)NC1CCCC1
248 to 250 | O=C(O)c1csc(-c2ccc(Br)s2)n1
209 to 211 | C=Cc1nc2sc3c(c2c(=O)[nH]1)CCCC3
76 to 78 | O=C(O)Cc1ccc(C(F)F)cc1
179 to 181 | CC(C)(C)C(=O)N1CCCC(C(=O)O)C1 (centres undefined)
119 to 121 | Cc1cc(Br)c(C(=O)O)cn1
230 to 238 | Cc1nn(-c2ccc(Cl)cc2)c2sc(C(=O)O)cc12
279 to 281 | O=C1Nc2c(F)ccc(Cl)c2C1=O
154 to 156 | Sc1nnnn1C1CCOCC1
176 to 178 | Nc1ccc2nc(N3CCOCC3)oc2c1
156 to 158 | CCC(C(=O)O)N1CCCC1=O (centres undefined)
158 to 160 | CCc1ccc(C(=O)O)cc1[N+](=O)[O-]

melting point [°C] | Structure (SMILES)
220 to 222 | O=C(O)Cc1csc2nc(-c3ccccc3)cn12
78 to 80 | COc1ccccc1CCNC(=O)CCl
140 to 142 | O=C(O)c1cccc(S(=O)(=O)Nc2ccc(F)cc2)c1
124 to 126 | Cc1cccc(NC(=O)C2CCCNC2)n1 (centres undefined)
106 to 108 | CC(C)C(C#N)NC(=O)c1ccccc1 (centres undefined)
118 to 120 | N#Cc1ccccc1Oc1ccc(N)cc1
152 to 154 | CCc1cc(N)c2ccccc2n1
104 to 108 | O=C(O)CCNC(=O)OCc1ccccc1
128 to 130 | O=C(O)CC(Br)C(=O)c1ccccc1 (centres undefined)
135 to 137 | CCOC(=O)c1c(N)oc(C)c1C(C)=O
54 to 56 | Cc1cc(C)c(C#N)c(N2CCCC2)n1
169 to 171 | Cc1cc(NS(=O)(=O)C(F)(F)F)ccc1C(=O)O
41 to 43 | CC(C)(N)CCS(C)(=O)=O
259 to 261 | O=C(O)c1ccc(N2CCC(O)CC2)cc1
174 to 176 | Cc1cc(C)c(C(N)=O)c(N2CCCC2)n1
208 to 210 | O=C(CCl)N(c1ccccc1)C1CCS(=O)(=O)C1 (centres undefined)
94 to 96 | CCN(CC)C(=O)N1CCCC(C(=O)O)C1 (centres undefined)
96 to 98 | O=C(O)CCCN1C(=O)c2ccccc2C1=O
149 to 151 | COc1ccccc1NC(=O)c1ccc(NC(=O)C(C)Cl)cc1 (centres undefined)
128 to 130 | Cc1ccc(-c2nc3c(s2)C(=O)CCC3)cc1
186 to 188 | O=C(O)c1cn(CCOc2ccccc2Cl)c2ccccc12
171 to 173 | CCOC(=O)c1cn[nH]c1S(N)(=O)=O
187 to 189 | CCOC(=O)c1c(C)oc2cc3c(C(=O)OCC)c(C)oc3cc12
75 to 77 | Cc1ccc(C)c(S(=O)(=O)NN)c1

melting point [°C] | Structure (SMILES)
264 to 266 | O=C1NC(=O)C2(CCOCC2)N1
176 to 180 | COc1cccc(NCc2nnc3n2CCCCC3)c1
114 to 116 | O=C(CCl)NCC1CCCc2ccccc21 (centres undefined)
203 to 205 | Cn1cc(C(=O)O)cn1
187 to 189 | NC(=O)c1c[nH]nc1-c1ccccc1
192 to 194 | CC(C)(C)n1ccnc1S
110 to 112 | CC(N)c1ccc(NC(=O)c2ccc(F)cc2)cc1 (centres undefined)
130 to 132 | CCCCNc1ccc(S(N)(=O)=O)cc1N
136 to 138 | Cn1cc(N2CCC(Br)C2=O)cn1 (centres undefined)
132 to 134 | O=C(O)c1ccc(Oc2cccc(Cl)c2)cc1
110 to 112 | Cc1nccc(N)c1Cl
173 to 175 | NNC(=O)c1nnc(-c2ccccc2)o1
135 to 137 | O=S(=O)(c1ccccc1)c1ccc(O)cc1
84 to 86 | O=Cc1ccc(-c2cc(Cl)ccc2Cl)o1
31 to 33 | N#Cc1cc(F)ccc1N=C=O
36 to 38 | N#Cc1cccc(OCCBr)c1
171 to 173 | CC(NC(N)=O)C(=O)O (centres undefined)
223 to 225 | O=C(O)C1CCCN1C(=O)c1ccc2[nH]nnc2c1 (centres undefined)
104 to 106 | COC(=O)C(=O)CC(=O)c1ccc(OC)cc1
257 to 259 | Cc1nc(=NCC(=O)O)c2cc(-c3ccccc3)sc2[nH]1
169 to 171 | O=C(O)CC(C(=O)O)c1ccccc1F (centres undefined)
87 to 89 | O=C(O)CCCOc1ccccc1Br
39 to 41 | N#Cc1cccc(Oc2ccc(N)cc2)c1
138 to 140 | CC(C)(C)OC(=O)N1CCN(CCS(N)(=O)=O)CC1

melting point [°C] | Structure (SMILES)
313 to 315 | NCCCc1n[nH]c(N)c1-c1nc2ccccc2s1
189 to 191 | O=C(O)c1ccc(Cl)cc1NS(=O)(=O)c1ccccc1
110 to 112 | Nc1cc(-c2ccc(F)cc2F)no1
262 to 264 | O=C1CCSc2ccc(C(=O)O)cc2N1
145 to 150 | O=C(O)Cn1nnc2ccccc2c1=O
95 to 97 | Cc1cccc(C2(C(=O)O)CCC2)c1
40 to 42 | CC(C)Nc1cccnc1
159 to 161 | Cn1ncc([N+](=O)[O-])c1C(=O)O
76 to 78 | C1CN(CCC23CC4CC(CC(C4)C2)C3)CCN1
188 to 190 | Nc1ccccc1NS(=O)(=O)c1cccs1
128 to 130 | O=[N+]([O-])c1ccc(S(=O)(=O)CCO)cc1
150 to 152 | CC1(c2ccccc2)NC(=O)N(NC(=O)CCl)C1=O (centres undefined)
95 to 97 | FC(F)(F)c1nc(Cl)c2sccc2n1
107 to 111 | Cc1cc(C(=O)C(C)Cl)c(C)n1-c1ccc(Cl)cc1 (centres undefined)
159 to 161 | Nc1ccc2oc(=O)ccc2c1
158 to 160 | CS(=O)(=O)Cc1nc(=N)o[nH]1
212 to 214 | NNC(=O)c1ccc(Cl)c(S(N)(=O)=O)c1
99 to 101 | CC(C)CC(N)C(=O)Nc1nccs1 (centres undefined)
31 to 33 | O=C(CCCc1ccccc1)Cc1ccc(Cl)cc1
152 to 154 | O=C(O)c1ccc(C(F)(F)C(F)(F)F)cc1
245 to 247 | Cn1cc(S(=O)(=O)N2CCOCC2)cc1C(=O)O
134 to 136 | Cc1cc(C)nc(-n2nc(N)cc2C)n1
52 to 53 | C=CCOc1c(Br)cc(C=O)cc1OC
146 to 148 | CN1CCCNc2nc3ccccc3nc21

melting point [°C] | Structure (SMILES)
150 to 152 | CC(=Cc1ccc(F)cc1)C(=O)O
209 to 211 | O=C(O)C1(N2CCOCC2)CCC1
75 to 77 | CC1Cc2ccccc2N1C(=O)CO (centres undefined)
145 to 147 | O=Cc1cc(O)cc(Br)c1O
76 to 78 | N#CCCOc1ccc(Br)cc1
119 to 121 | COc1ccc(Br)c(S(N)(=O)=O)c1
223 to 225 | O=C(O)c1ccn(-c2ccccc2[N+](=O)[O-])n1
169 to 171 | O=C(O)C1=NN(c2ccccc2)C(=O)CC1
173 to 175 | Nc1c(C(=O)c2cccs2)oc2ccccc12
279 to 281 | Sc1n[nH]c(-c2ccccn2)n1
119 to 121 | Cc1ccc(Cl)c(N)c1C(=O)O
200 to 202 | O=C(O)c1ccc(OCC(F)(F)F)cc1
90 to 92 | CN(C)S(=O)(=O)c1ccc(C(=O)CBr)cc1
281 to 283 | CC1Oc2c(cccc2C(=O)O)NC1=O (centres undefined)
98 to 100 | Nc1nc(-c2ccc(Cl)s2)cs1
74 to 76 | CC(O)CN1C(=O)C=CC1=O (centres undefined)
274 to 276 | CS(=O)(=O)c1ccc(C(=O)O)cc1[N+](=O)[O-]
149 to 151 | CCc1c(C)nn(-c2cccc(C(=O)O)c2)c1C
129 to 131 | CC(=O)N1CCc2cc(C(=O)C(C)Cl)ccc21 (centres undefined)
35 to 37 | CNC(=O)OCC(F)(F)F
58 to 60 | Nc1ccc(S(F)(F)(F)(F)F)cc1Br

Structure (SMILES) | melting point [°C]
NS(=O)(=O)CCCF | 45 to 47
CC1CNC(=Nc2ccc(C(C)C)cc2)S1 (centres undefined) | 109 to 111
NCc1ccc(N2CCNCC2)cc1 | 163 to 165
